Laboratory results: patent publication US7074796B2 (H. Lundbeck A/S, priority 1999, dated 2006)

Legend:
[1] = target: T1, human cloned dopamine D4.2 receptors (Homo sapiens, UniProt P21917, DEL265-296); experiment: Inhibition of the binding of [3H]YM-09151-2 to human dopamine D4 receptors; details: [3H]YM-09151-2 0.06 nM, membranes of CHO-cells; read-out: D4-bind. IC50
T1 construct: expressed in transfected cells; host or cells: CHO cells
T1 sequence (P21917 with tags, fused parts or gaps DEL265-296): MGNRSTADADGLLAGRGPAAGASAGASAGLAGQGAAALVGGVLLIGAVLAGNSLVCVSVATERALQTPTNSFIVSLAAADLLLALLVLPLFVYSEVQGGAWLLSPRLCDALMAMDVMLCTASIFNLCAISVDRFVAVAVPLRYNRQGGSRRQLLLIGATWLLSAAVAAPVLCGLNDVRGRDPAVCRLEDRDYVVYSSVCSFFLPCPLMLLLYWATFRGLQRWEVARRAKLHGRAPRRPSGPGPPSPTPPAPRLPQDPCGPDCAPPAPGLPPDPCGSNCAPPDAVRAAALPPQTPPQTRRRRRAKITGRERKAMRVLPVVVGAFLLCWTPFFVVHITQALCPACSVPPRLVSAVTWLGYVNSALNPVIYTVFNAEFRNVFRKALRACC
Procedure: Inhibition of the Binding of [^3H]YM-09151-2 to Human Dopamine D4 Receptors
By this method the inhibition by drugs of the binding of [^3H]YM-09151–2 (0.06 nM) to membranes of human cloned dopamine D4.2 receptors expressed in CHO-cells is determined in vitro. Method modified from NEN Life Science Products, Inc., technical data certificate PC2533-10/96.

[2] = target: T2, human cloned dopamine D3 receptors (Homo sapiens, UniProt P35462); experiment: Inhibition of the binding of [3H]Spiperone to human D3 receptors; details: [3H]Spiperone 0.3 nM, membranes of CHO-cells; for IC50: read-out: D3-bind. IC50
T2 construct: expressed in transfected cells; host or cells: CHO cells
T2 sequence (P35462 whole entry): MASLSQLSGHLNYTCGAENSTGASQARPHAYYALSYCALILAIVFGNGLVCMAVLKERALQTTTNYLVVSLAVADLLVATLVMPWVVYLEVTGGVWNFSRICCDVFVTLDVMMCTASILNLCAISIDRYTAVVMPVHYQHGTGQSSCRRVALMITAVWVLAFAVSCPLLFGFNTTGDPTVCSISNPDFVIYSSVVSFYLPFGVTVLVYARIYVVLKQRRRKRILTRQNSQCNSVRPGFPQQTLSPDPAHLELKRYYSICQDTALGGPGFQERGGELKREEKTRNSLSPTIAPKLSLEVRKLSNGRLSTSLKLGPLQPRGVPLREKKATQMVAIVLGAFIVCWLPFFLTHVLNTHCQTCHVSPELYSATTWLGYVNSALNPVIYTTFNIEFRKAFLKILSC
Procedure: Inhibition of the Binding of [^3H]Spiperone to Human D3 Receptors
By this method the inhibition by drugs of the binding [^3H]Spiperone (0.3 nM) to membranes of human cloned dopamine D3 receptors expressed in CHO-cells is determined in vitro. Method modified from MacKenzie et al. Eur. J. Pharm.-Mol. Pharm. Sec. 1994, 266, 79–85.

alpha-1 receptors = experiment: Inhibition of binding of [3H]Prazosine to rat alpha-1 receptors; details: [3H]Prazosine 0.25 nM, membranes from rat brain
Procedure: Inhibition of Binding of [^3H]Prazosine to Rat Alpha-1 Receptors
By this method the inhibition by drugs of the binding of [^3H]Prazosine (0.25 nM) to alpha-1 receptors in membranes from rat brain is determined in vitro. Method modified from Hyttel et al. J. Neurochem. 1985, 44, 1615–1622.

Compound	IC50 [1]	D3-bind. % inhibition of binding at 100 nM ([2]; 100 nM)	Alpha-1 % inhibition of binding at 100 nM (alpha-1 receptors)	IC50 [2]	IC50 (alpha-1 receptors)
O=C(CCN1CCN(c2cccc(Cl)c2Cl)CC1)N1CCc2ccccc21 [Compound 1a, 3-[4-(2,3-Dichlorophenyl)piperazin-1-yl]-1-(2,3-dihydro-1H-indol-1-yl)propan-1-one]	3.3 nM	–	–	100 nM	59 nM
O=C(CCCN1CCN(c2cccc(Cl)c2Cl)CC1)N1CCc2ccccc21 [Compound 1b, 4-[4-(2,3-Dichlorophenyl)piperazin-1-yl]-1-(2,3-dihydro-1H-indol-1-yl)butan-1-one]	2.8 nM	–	–	3 nM	1100 nM
O=C(CCCCN1CCN(c2cccc(Cl)c2Cl)CC1)N1CCc2ccccc21 [Compound 1c, 5-[4-(2,3-Dichlorophenyl)piperazin-1-yl]-1-(2,3-dihydro-1H-indol-1-yl)pentan-1-one]	39 nM	–	–	10 nM	160 nM
O=C(CCCN1CCN(c2ccccc2Cl)CC1)N1CCc2ccccc21 [Compound 1d, 4-[4-(2-Chlorophenyl)piperazin-1-yl]-1-(2,3-dihydro-1H-indol-1-yl)butan-1-one]	0.92 nM	–	–	20 nM	97 nM
O=C(CCCN1CCN(c2cccc(Cl)c2)CC1)N1CCc2ccccc21 [Compound 1e, 4-[4-(3-Chlorophenyl)piperazin-1-yl]-1-(2,3-dihydro-1H-indol-1-yl)butan-1-one]	2.1 nM	–	–	50 nM	17 nM
Clc1cccc(N2CCN(CCCCN3CCc4ccccc43)CC2)c1 [Compound 2e, 1-{4-[4-(3-Chlorophenyl)piperazin-1-yl]butyl}-2,3-dihydro-1H-indole]	1.6 nM	–	–	17 nM	40 nM
Clc1cccc(N2CCN(CCCCC3CCc4ccccc43)CC2)c1Cl (stereo not drawn) [Compound 3, 1-(2,3-Dichlorophenyl)-4-[4-(indan-1-yl)butyl]piperazine]	11 nM	–	−3%	6.8 nM	–
Clc1ccc2c(SCCN3CCN(c4cccc(Cl)c4Cl)CC3)c[nH]c2c1 [Compound 4, 6-Chloro-3-{2-[4-(2,3-dichlorophenyl)piperazin-1-yl]ethylsulfanyl}-1H-indole]	500 nM	–	–	40 nM	4800 nM
Clc1cccc(N2CCN(CCCc3c[nH]c4ccccc34)CC2)c1Cl [Compound 5a, 3-{3-[4-(2,3-Dichlorophenyl)piperazin-1-yl]propyl}-1H-indole]	2.2 nM	–	–	2.8 nM	410 nM

Further lines, results first:

IC50 [1]	D3-bind. % inhibition of binding at 100 nM ([2]; 100 nM)	Alpha-1 % inhibition of binding at 100 nM (alpha-1 receptors)	IC50 [2]	IC50 (alpha-1 receptors)	Compound
26 nM	95%	34%	–	–	5-[4-(2,3-Dichloro-phenyl)-piperazin-1-yl]-1-(3,4-dihydro-1H-isoquinolin-2-yl)propan-1-one [Compound 7f]
1.8 nM	–	–	31 nM	68 nM	Clc1cccc(N2CCN(CCCN3CCc4ccccc43)CC2)c1Cl [Compound 2a, 1-{3-[4-(2,3-Dichlorophenyl)piperazin-1-yl]propyl}-2,3-dihydro-1H-indole]
12 nM	–	10%	3.1 nM	–	Clc1cccc(N2CCN(CCCCN3CCc4ccccc43)CC2)c1Cl [Compound 2b, 1-{4-[4-(2,3-Dichlorophenyl)piperazin-1-yl]butyl}-2,3-dihydro-1H-indole]
18 nM	–	–	22 nM	190 nM	Clc1cccc(N2CCN(CCCCCN3CCc4ccccc43)CC2)c1Cl [Compound 2c, 1-{5-[4-(2,3-Dichlorophenyl)piperazin-1-yl]pentyl}-2,3-dihydro-1H-indole]
1.2 nM	–	–	4 nM	31 nM	Clc1ccccc1N1CCN(CCCCN2CCc3ccccc32)CC1 [Compound 2d, 1-{4-[4-(2-Chlorophenyl)piperazin-1-yl]butyl}-2,3-dihydro-1H-indole]
14 nM	–	–	1.1 nM	570 nM	Clc1cccc(N2CCN(CCCCc3c[nH]c4ccccc34)CC2)c1Cl [Compound 5b, 3-{4-[4-(2,3-Dichlorophenyl)piperazin-1-yl]butyl}-1H-indole]
